For the assay, the target named is T1, human CTPS1 (Homo sapiens, UniProt P17812).
T1 sequence (P17812 1-591): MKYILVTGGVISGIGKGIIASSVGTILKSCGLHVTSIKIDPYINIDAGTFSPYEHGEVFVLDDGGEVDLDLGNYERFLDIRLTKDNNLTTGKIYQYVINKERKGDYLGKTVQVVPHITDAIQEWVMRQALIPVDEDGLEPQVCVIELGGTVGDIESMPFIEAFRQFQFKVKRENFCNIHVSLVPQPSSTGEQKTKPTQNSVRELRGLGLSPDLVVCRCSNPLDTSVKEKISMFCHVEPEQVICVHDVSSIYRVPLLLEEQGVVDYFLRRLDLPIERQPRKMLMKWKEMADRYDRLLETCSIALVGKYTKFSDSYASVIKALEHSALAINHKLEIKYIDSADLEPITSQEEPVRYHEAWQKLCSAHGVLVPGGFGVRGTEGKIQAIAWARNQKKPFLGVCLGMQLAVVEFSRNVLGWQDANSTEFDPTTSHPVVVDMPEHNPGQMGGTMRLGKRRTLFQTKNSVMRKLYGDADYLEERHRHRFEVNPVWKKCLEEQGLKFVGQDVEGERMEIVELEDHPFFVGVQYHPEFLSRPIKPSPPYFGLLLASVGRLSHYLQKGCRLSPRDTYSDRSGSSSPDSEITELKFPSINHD
Put plainly: ADP-Glo assay, human CTPS1 enzyme inhibition. Type of assay: biochemical. The note with it: wild-type human CTPS1, 25 nM enzyme; ADP-Glo; read-out: ADP-Glo_WT_hCTPS1—25 nM_IC50 (IC50). The gist of the method: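 ADP-Glo luminescence quantified ADP produced by 25 nM purified human CTPS1 (full length, FLAG-His tagged) at 25° C within the linear phase. Final substrates: ATP 120 μM, UTP 160 μM, GTP 60 μM, L-glutamine 100 μM; 1% DMSO; pH 7.4 HEPES buffer with Mg2+, KCl, DTT. Compound pre-incubated with enzyme 10 min, then with ATP/UTP 10 min.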

Where a name gives a salt, the structure may show the parent alone.

For orientation: IC50 means the midpoint of a concentration-inhibition curve. On to `CCOc1cncc(-c2cnc(C(=O)N[C@@H](C)c3cc(NS(=O)(=O)C4CC4)ccn3)s2)n1` [I-177, (S)-N-(1-(4-(cyclopropanesulfonamido)pyridin-2-yl)ethyl)-5-(6-ethoxypyrazin-2-yl)thiazole-2-carboxamide], for which the IC50 lay within 5 to 25 nM.
The same measure for `CCOc1cncc(-c2cnc(C(=O)NCc3ccnc(NS(=O)(=O)C4CC4)n3)s2)n1` [I-178, N-((2-(cyclopropanesulfonamido)pyrimidin-4-yl)methyl)-5-(6-ethoxypyrazin-2-yl)thiazole-2-carboxamide]: 25 to 50 nM; for `CCOc1cncc(-c2cnc(C(=O)NC3(c4cc(NS(=O)(=O)C5CC5)ccn4)CC3)s2)n1` [I-179, N-(1-(4-(cyclopropanesulfonamido)pyridin-2-yl)cyclopropyl)-5-(6-ethoxypyrazin-2-yl)thiazole-2-carboxamide]: 5 to 25 nM; for `CCOc1cncc(-c2cnc(C(=O)NCc3cncc(NS(=O)(=O)C4CC4)n3)s2)n1` [I-180, N-((6-(cyclopropanesulfonamido)pyrazin-2-yl)methyl)-5-(6-ethoxypyrazin-2-yl)thiazole-2-carboxamide]: 5 to 25 nM.
The same measure for `O=C(NCc1cc(NS(=O)(=O)C2CC2)ccn1)c1ccc(-c2cnn3ccc(Cl)cc23)cc1F` [I-181, 4-(5-chloropyrazolo[1,5-a]pyridin-3-yl)-N-((4-(cyclopropanesulfonamido)pyridin-2-yl)methyl)-2-fluorobenzamide]: 25 to 50 nM; for `CCOc1cncc(-c2cnc(C(=O)NC3(c4cc(NS(=O)(=O)C5CC5)ccn4)CCN(C)C3)s2)n1` (centres unmarked) [I-182, N-(3-(4-(cyclopropanesulfonamido)pyridin-2-yl)-1-methylpyrrolidin-3-yl)-5-(6-ethoxypyrazin-2-yl)thiazole-2-carboxamide, formic acid salt]: 5 to 25 nM.
For the molecule `CCOc1cncc(-c2cnc(C(=O)N[C@@H](CCN3CCCCC3)c3cccc(NS(=O)(=O)C(F)F)c3)s2)n1` [I-183, (S)-N-(1-(3-((difluoromethyl)sulfonamido)phenyl)-3-(piperidin-1-yl)propyl)-5-(6-ethoxypyrazin-2-yl)thiazole-2-carboxamide], the IC50 was greater than 100 nM.
The same measure for `CCOc1cncc(-c2cnc(C(=O)N[C@H](CCN3CCCCC3)c3cccc(NS(=O)(=O)C(F)F)c3)s2)n1` [I-184, (R)-N-(1-(3-((difluoromethyl)sulfonamido)phenyl)-3-(piperidin-1-yl)propyl)-5-(6-ethoxypyrazin-2-yl)thiazole-2-carboxamide]: 5 to 25 nM.
For `CCOc1cncc(-c2cnc(C(=O)N[C@@H](CCNC3CC3)c3cc(NS(=O)(=O)C4CC4)ccn3)s2)n1` [I-185, (S)-N-(1-(4-(cyclopropanesulfonamido)pyridin-2-yl)-3-(cyclopropylamino)propyl)-5-(6-ethoxypyrazin-2-yl)thiazole-2-carboxamide], the IC50 lay in the range of 50 to 100 nM.
The same measure for `CCOc1cncc(-c2cnc(C(=O)N[C@H](CCNC3CC3)c3cc(NS(=O)(=O)C4CC4)ccn3)s2)n1` [I-186, (R)-N-(1-(4-(cyclopropanesulfonamido)pyridin-2-yl)-3-(cyclopropylamino)propyl)-5-(6-ethoxypyrazin-2-yl)thiazole-2-carboxamide]: 5 to 25 nM.
The same measure for `CCOc1cncc(-c2cnc(C(=O)N[C@H](c3cccc(NS(=O)(=O)C(F)F)c3)[C@H]3CCOC3)s2)n1` [I-187, N-((S)-(3-((difluoromethyl)sulfonamido)phenyl)((R)-tetrahydrofuran-3-yl)methyl)-5-(6-ethoxypyrazin-2-yl)thiazole-2-carboxamide]: 5 to 25 nM.
For the molecule `CCOc1cncc(-c2cnc(C(=O)N[C@H](c3cccc(NS(=O)(=O)C(F)F)c3)[C@@H]3CCOC3)s2)n1` [I-188, N-((S)-(3-((difluoromethyl)sulfonamido)phenyl)((S)-tetrahydrofuran-3-yl)methyl)-5-(6-ethoxypyrazin-2-yl)thiazole-2-carboxamide], the half-maximal inhibitory concentration (IC50) fell in the range of 5 to 25 nM.
The same measure for `CCOc1cncc(-c2cnc(C(=O)N[C@@H](c3cccc(NS(=O)(=O)C(F)F)c3)[C@@H]3CCOC3)s2)n1` [I-189, N-((R)-(3-((difluoromethyl)sulfonamido)phenyl)((S)-tetrahydrofuran-3-yl)methyl)-5-(6-ethoxypyrazin-2-yl)thiazole-2-carboxamide]: no more than 5 nM; for `CCOc1cncc(-c2cnc(C(=O)N[C@@H](c3cccc(NS(=O)(=O)C(F)F)c3)[C@H]3CCOC3)s2)n1` [I-190, N-((R)-(3-((difluoromethyl)sulfonamido)phenyl)((R)-tetrahydrofuran-3-yl)methyl)-5-(6-ethoxypyrazin-2-yl)thiazole-2-carboxamide]: 5 to 25 nM.
The same measure for `CCOc1cncc(-c2cnc(C(=O)N[C@@H](C[C@@H]3COCCN3C)c3cccc(NS(=O)(=O)C(F)F)c3)s2)n1` [I-191, N-((S)-1-(3-((difluoromethyl)sulfonamido)phenyl)-2-((R)-4-methylmorpholin-3-yl)ethyl)-5-(6-ethoxypyrazin-2-yl)thiazole-2-carboxamide]: 25 to 50 nM; for `CCOc1cncc(-c2cnc(C(=O)N[C@@H](C[C@H]3COCCN3C)c3cccc(NS(=O)(=O)C(F)F)c3)s2)n1` [I-192, N-((S)-1-(3-((difluoromethyl)sulfonamido)phenyl)-2-((S)-4-methylmorpholin-3-yl)ethyl)-5-(6-ethoxypyrazin-2-yl)thiazole-2-carboxamide]: 5 to 25 nM.
As for `CCOc1cncc(-c2cnc(C(=O)N[C@H](CC3COCCN3C)c3cccc(NS(=O)(=O)C(F)F)c3)s2)n1` (stereo partly drawn) [I-193, N-((1R)-1-(3-((difluoromethyl)sulfonamido)phenyl)-2-(4-methylmorpholin-3-yl)ethyl)-5-(6-ethoxypyrazin-2-yl)thiazole-2-carboxamide], the IC50 lay within 50 to 100 nM.
On to `CCOc1cncc(-c2cnc(C(=O)N[C@H](c3cccc(NS(=O)(=O)C(F)F)c3)C3CCOCC3)s2)n1` [I-194, (S)-N-((3-((difluoromethyl)sulfonamido)phenyl)(tetrahydro-2H-pyran-4-yl)methyl)-5-(6-ethoxypyrazin-2-yl)thiazole-2-], for which the IC50 was 5 to 25 nM.
The same measure for `CCOc1cncc(-c2cnc(C(=O)N[C@@H](c3cccc(NS(=O)(=O)C(F)F)c3)C3CCOCC3)s2)n1` [I-195, (R)-N-((3-((difluoromethyl)sulfonamido)phenyl)(tetrahydro-2H-pyran-4-yl)methyl)-5-(6-ethoxypyrazin-2-yl)thiazole-2-carboxamide]: 5 to 25 nM; for `O=C(N[C@H](c1cccc(NS(=O)(=O)C(F)F)c1)C1CCOCC1)c1ncc(-c2cnn3ccc(Cl)cc23)s1` [I-196, (S)-5-(5-chloropyrazolo[1,5-a]pyridin-3-yl)-N-((3-((difluoromethyl)sulfonamido)phenyl)(tetrahydro-2H-pyran-4-yl)methyl)thiazole-2-carboxamide]: 5 to 25 nM; for `O=C(N[C@@H](c1cccc(NS(=O)(=O)C(F)F)c1)C1CCOCC1)c1ncc(-c2cnn3ccc(Cl)cc23)s1` [I-197, (R)-5-(5-chloropyrazolo[1,5-a]pyridin-3-yl)-N-((3-((difluoromethyl)sulfonamido)phenyl)(tetrahydro-2H-pyran-4-yl)methyl)thiazole-2-carboxamide]: 5 to 25 nM.
The same measure for `CCOc1cncc(-c2cnc(C(=O)N[C@H](c3cccc(NS(=O)(=O)C(F)F)c3)[C@H]3COCCO3)s2)n1` [I-198, N-((R)-(3-((difluoromethyl)sulfonamido)phenyl)((S)-1,4-dioxan-2-yl)methyl)-5-(6-ethoxypyrazin-2-yl)thiazole-2-carboxamide]: 5 to 25 nM; for `CCOc1cncc(-c2cnc(C(=O)N[C@H](c3cccc(NS(=O)(=O)C(F)F)c3)[C@@H]3COCCO3)s2)n1` [I-199, N-((R)-(3-((difluoromethyl)sulfonamido)phenyl)((R)-1,4-dioxan-2-yl)methyl)-5-(6-ethoxypyrazin-2-yl)thiazole-2-carboxamide]: 5 to 25 nM.
Take `CCOc1cncc(-c2cnc(C(=O)N[C@@H](c3cccc(NS(=O)(=O)C(F)F)c3)[C@@H]3COCCO3)s2)n1` [I-200, N-((S)-(3-((difluoromethyl)sulfonamido)phenyl)((R)-1,4-dioxan-2-yl)methyl)-5-(6-ethoxypyrazin-2-yl)thiazole-2-carboxamide]: the IC50 fell in the range of 5 to 25 nM.
On to `CCOc1cncc(-c2cnc(C(=O)N[C@@H](c3cccc(NS(=O)(=O)C(F)F)c3)[C@H]3COCCO3)s2)n1` [I-201, N-((S)-(3-((difluoromethyl)sulfonamido)phenyl)((S)-1,4-dioxan-2-yl)methyl)-5-(6-ethoxypyrazin-2-yl)thiazole-2-carboxamide], for which the IC50 fell in the range of 5 to 25 nM.
The same measure for `CCOc1cncc(-c2cnc(C(=O)N[C@]3(c4cccc(NS(=O)(=O)C(F)F)c4)C[C@H](O)C3)s2)n1` [I-202, N-((1s,3s)-1-(3-((difluoromethyl)sulfonamido)phenyl)-3-hydroxycyclobutyl)-5-(6-ethoxypyrazin-2-yl)thiazole-2-carboxamide]: 5 to 25 nM.
